Columns and labels:
Assay in all cases: Thymidylate Synthase (TS) Assay
Details in all cases: pH 7.4; 20 °C
[1] = biological target: T1, Thymidylate synthase (Cryptococcus neoformans var. neoformans serotype D (strain B-3501A), UniProt P0CS13)
T1 sequence (P0CS13 whole entry): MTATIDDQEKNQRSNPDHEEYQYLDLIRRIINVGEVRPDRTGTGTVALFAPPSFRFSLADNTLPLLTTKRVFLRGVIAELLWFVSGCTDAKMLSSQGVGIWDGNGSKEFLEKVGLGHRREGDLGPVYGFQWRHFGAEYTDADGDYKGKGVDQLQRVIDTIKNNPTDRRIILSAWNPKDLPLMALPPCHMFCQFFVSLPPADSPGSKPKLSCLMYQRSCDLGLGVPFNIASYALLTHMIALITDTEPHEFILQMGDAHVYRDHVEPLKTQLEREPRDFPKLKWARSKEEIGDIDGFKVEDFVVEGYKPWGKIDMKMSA
Protocol: (§1) TS was assayed spectrophotometrically in the reaction buffer solution containing (6R, 6S)-5, 10-CH2H4folate. The reaction was initiated by the addition of an amount of enzyme yielding a change in absorbance at 340 nm of 0.016/min in the absence of inhibitor. Ki values were obtained from the linear least-squares fit of the residual activity as a function of inhibitor concentration, using suitable equations for competitive inhibition.

[2] = biological target: Thymidylate synthase (Escherichia coli (strain K12), UniProt P0A884)
Thymidylate synthase (Escherichia coli (strain K12), UniProt P0A884), sequence (P0A884 whole entry): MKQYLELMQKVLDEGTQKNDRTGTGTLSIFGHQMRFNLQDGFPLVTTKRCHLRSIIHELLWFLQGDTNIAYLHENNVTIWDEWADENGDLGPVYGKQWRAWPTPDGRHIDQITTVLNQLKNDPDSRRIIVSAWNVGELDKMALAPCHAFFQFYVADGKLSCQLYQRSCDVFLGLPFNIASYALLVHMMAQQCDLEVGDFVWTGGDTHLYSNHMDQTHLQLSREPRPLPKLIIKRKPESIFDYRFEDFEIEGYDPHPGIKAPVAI
Protocol: as §1

[3] = biological target: Thymidylate synthase (Homo sapiens, UniProt P04818)
Thymidylate synthase (Homo sapiens, UniProt P04818), sequence (P04818 whole entry): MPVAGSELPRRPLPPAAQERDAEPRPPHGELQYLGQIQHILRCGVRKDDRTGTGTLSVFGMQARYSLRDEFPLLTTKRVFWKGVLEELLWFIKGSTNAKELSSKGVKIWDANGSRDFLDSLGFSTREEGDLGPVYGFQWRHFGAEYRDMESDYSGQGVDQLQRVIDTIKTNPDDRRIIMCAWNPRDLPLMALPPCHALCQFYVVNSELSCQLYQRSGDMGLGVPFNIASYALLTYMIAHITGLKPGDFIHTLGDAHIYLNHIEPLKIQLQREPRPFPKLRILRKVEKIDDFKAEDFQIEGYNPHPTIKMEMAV
Protocol: as §1

[4] = biological target: T2, Thymidylate synthase (Lacticaseibacillus casei, UniProt P00469)
T2 sequence (P00469 whole entry): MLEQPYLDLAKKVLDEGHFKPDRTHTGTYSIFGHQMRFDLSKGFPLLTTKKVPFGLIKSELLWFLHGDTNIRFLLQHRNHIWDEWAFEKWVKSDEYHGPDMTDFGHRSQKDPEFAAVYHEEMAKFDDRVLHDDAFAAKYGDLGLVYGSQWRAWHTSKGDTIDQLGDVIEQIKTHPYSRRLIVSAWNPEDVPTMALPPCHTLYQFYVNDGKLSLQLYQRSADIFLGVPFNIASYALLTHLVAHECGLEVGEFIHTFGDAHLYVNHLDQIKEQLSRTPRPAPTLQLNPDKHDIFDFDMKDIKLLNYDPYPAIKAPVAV
Protocol: as §1

[5] = biological target: T3, Thymidylate synthase (Pneumocystis carinii, UniProt P13100)
T3 sequence (P13100 whole entry): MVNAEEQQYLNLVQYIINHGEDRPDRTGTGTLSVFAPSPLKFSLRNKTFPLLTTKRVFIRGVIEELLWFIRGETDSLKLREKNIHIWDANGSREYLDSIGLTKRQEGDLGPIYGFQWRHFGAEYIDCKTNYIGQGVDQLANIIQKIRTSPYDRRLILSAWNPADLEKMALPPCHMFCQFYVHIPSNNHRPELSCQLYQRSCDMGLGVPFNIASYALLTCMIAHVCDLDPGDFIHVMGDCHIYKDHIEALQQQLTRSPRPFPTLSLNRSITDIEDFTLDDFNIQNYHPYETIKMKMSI
Protocol: as §1

## O=C1OC(c2ccc(O)c(Br)c2)(c2ccc(O)c(Br)c2)c2cccc3c(Cl)ccc1c23 [4,4-bis(3-bromo-4-hydroxyphenyl)-10-chloro-3-oxatricyclo[7.3.1.0^{5,13}]trideca-1(12),5(13),6,8,10-pentaen-2-one]
[1]
  Ki: 4.1 µM
[2]
  Ki: 4.1 µM
[3]
  Ki: > 245 µM
[4]
  Ki: 0.8 µM
[5]
  Ki: 28 µM

— BindingDB's records for doi:10.1107/S0907444905022638 (University of California San Francisco, 2005)
